EP4215195A1, “LANATOSIDE C, CLOPIDOGREL, AND R406 IN TREATMENT OF CVD-CLONAL HEMATOPOIESIS OF INDETERMINATE POTENTIAL (CVD-CHIP)” (Genome Biologics UG, priority 2022, dated 2023)

Key:
[1] = tested on: healthy (siScr) myeloid cells; assay: Cl. Caspase Assay (apoptosis), healthy cells; assay type: cell-based
[2] = tested on: CHIP-infiltrated cardiac organoids (siTET2); assay: Myeloid cell infiltration into cardiac organoids (Qtracker staining, coculture); conditions: siTET2 organoids treated vs Vehicle; baseline siScr Vehicle; hypoxic coculture, 3 days
Description: These MCs were utilized in the coculturing system with self-organized human cardiac organoids, where they were tracked using a Qtracker stain.
(§7) Macrophages were differentiated from THP1 monocytes, then treated with siRNAs (18 h incubation), washed, and labeled with Qtracker™ 655 Cell Labeling Kit (ThermoFisher) for 1 h according to the manufacturer's instructions, washed with PBS, and dissociated with 0.05% trypsin. Macrophages were then added to organoids and cultured at 37°C, 5% CO2, and 1%O2. Cultures were maintained in 96-well U-bottom plates.
(§8) Immunostaining, RNA extraction and cTNT assays were run after 3 days of culturing.
After an overnight PFA fixation, the organoids were washed with PBS, then treated with 1% TritonX-100 (in PBS) for 45 minutes. Afterwards, they are incubated with PBS for 10 minutes for washing. 5% horse serum (in PBS) is added to block and incubated for 45 minutes (RT) Primary antibody in 2% horse serum + 0.0002% TritonX-100 was added and the samples were incubated at 4°C overnight. Primary antibodies: Anti-Sarcomeric-actinin (Ab68167, anti-human), Anti-Cleaved Caspase-3 (Ab32042, anti-human). Samples were washed with PBS + 0.002% TritonX-100 6x10min. Secondary antibodies and additional stains were added and incubated for 4h at RT: AlexaFlour 488 (Invitrogen, A11070), AlexaFlour 555 (Invitrogen, A21425), DAPI, Qtracker labelling 655 (Invitrogen, Q25021 MP). Samples were washed by incubating with PBS+0.002%TritonX-100 for 2-3 hours at RT), and mounted on Superfrost Plus Adhesion Slides (ThermoFisher) sing transparent polish to seal the slide sides to the coverslips (Roth). Samples were imaged using SP8 Lightning Leica Confocal Microscope, using a 40x objective (for a total of 800x and 300x magnification with zoom factors and eye lenses).

[3] = tested on: CHIP (siTET2) myeloid cells; assay: Trypan Blue Assay (cell death), CHIP cells; assay type: cell-based
[4] = tested on: healthy (siScr) myeloid cells; assay: Trypan Blue Assay (cell death), healthy cells; assay type: cell-based
[5] = tested on: CHIP (siTET2) myeloid cells; assay: Cl. Caspase Assay (apoptosis), CHIP cells; assay type: cell-based
[6] = tested on: CHIP (siTET2) myeloid cells; assay: Synthetic lethality screen of a CVD drug library, alamarBlue Cell Viability assay, CHIP cells; assay type: cell-based; conditions: THP-1 cells with TET2 siRNA knockdown; drugs 100 µM, 48 hours; compared with Vehicle
Description: (§1) The established disease model can subsequently be used for drug screening. Thus, a synthetic lethality screening of a CVD (cardiovascular disease) drug library was performed, treating CHIP (siTET2) or healthy (siScr) myeloid cells.
(§2) THP-1 cells were purchased from DSMZ (ACC 16) and maintained in RPMI-1640 (Gibco) +10% Fetal Calf Serum, 1% Penicillin/Streptomycin, 1% Glutamine, 0.05 mM 2-Mercaptoethanol.
(§3) THP-1 cells were differentiated from monocytes to macrophages by supplementing the media 100 ng/mL PMA and culturing for 48 h, and then in PMA-free media for another 24 h. For routine culturing, cells were maintained at 37°C, 5% CO2, 20% O2. In cardiopathologic culturing, both THP1 cells and organoids were maintained hypoxic conditions at 37°C, 5% CO2, 1% O2.
(§4) Transfection of THP-1 cells with siRNA purchased as ON-TARGETplus pools from Horizon Discovery (TET2 siRNA pool containing: ACAAGAAAGUAGAGGGUAU (SEQ ID NO 001), ACACCUAGUUUCAGAGAAU (SEQ ID NO 002), CCUCAGAAUAAUUGUGUGA (SEQ ID NO 003), CAGCAAAGGUACUUGAUAC (SEQ ID NO 004); Control siRNA pool containing: UGGUUUACAUGUUGUGUGA (SEQ ID NO 005), UGGUUUACAUGUUUUCCUA (SEQ ID NO 006)).
(§5) Working solution of 50µM siRNA was prepared in siRNA Buffer (ThermoFisher). 2 µL of 50µM siRNA were mixed with 500 µL OptiMEM and 6.25µL LTX Reagent PLUS (ThermoFisher) and incubated at room temperature (RT) for 15 min. 6.25 µL Lipofectamine LTX was added, mixed, and incubated for 30 min at RT. 500 µL were then added to the target culture and the culture was incubated at 37°C, 5% CO2. Passaging and/or media change was performed after 24 h.
(§6) THP-1 monocytes and macrophages were cocultured overnight (18 h) with siRNA. They were then washed with PBS and used for either TET2 knockdown quality control (as described below) or for the drug screening. For the screening, cells were transferred from tissue culture flasks to 384-well plates. Drugs were added to a final concentration of 100 µM and incubated for 48 hours. An alamarBlue Cell Viability assay (Invitrogen) with a 4 h incubation was performed according to the manufacturer's instructions.

[7] = tested on: CHIP-infiltrated cardiac organoids (siTET2); assay: Cardiomyocyte apoptosis in cardiac organoids (Cleaved Caspase staining colocalized with α-Actinin); assay type: cell-based, human; conditions: siTET2 organoids treated vs Vehicle; healthy = siScr
Source text: To assess the CM death, the inventors used cleaved caspase staining which labels apoptotic cells. […] The increase in CM death in the TET2 KD group is further verified by an increase in cardiac troponin T (cTNT), a prognostic cardiac damage clinical biomarker (* p <0.05).

[8] = tested on: CHIP-infiltrated cardiac organoids (siTET2); assay: cTNT assay (Human Cardiac Troponin T ELISA) in organoid coculture; assay type: cell-based; conditions: siTET2 organoids treated vs Vehicle; healthy = siScr; 3 days of culturing
Description: The cTNT assay was performed using the Human Cardiac Troponin T ELISA® Kit (ab223860, Abcam) following the manufacturer's instructions.

[9] = tested on: healthy (siScr) myeloid cells; assay: Synthetic lethality screen of a CVD drug library, alamarBlue Cell Viability assay, healthy cells; assay type: cell-based; conditions: THP-1 cells with control siRNA; drugs 100 µM, 48 hours; compared with Vehicle
Description: as §1, §2, §3, §4, §5, §6

[10] = tested on: cardiac organoids infiltrated with CHIP myeloid cells; assay: Gene expression (RNA levels of markers) in cardiac organoids infiltrated with CHIP myeloid cells; assay type: cell-based, human; conditions: treated vs Vehicle; normalized to healthy state = 1.0
Description: as §7, §8

Molecule	apoptosis of healthy (siScr) cells (CI. Caspase Assay) [1]	infiltration of myeloid cells into organoids (Qtracker-stained area) [2]	levels of cell death of CHIP myeloid cells (Trypan Blue Assay) [3]	cell death of healthy (siScr) cells (Trypan Blue Assay) [4]	apoptosis of CHIP myeloid cells (CI. Caspase Assay) [5]	viability of CHIP myeloid cells (siTET2) [6]	cardiomyocyte apoptosis levels (areas of Cleaved Caspase staining) [7]	levels of the prognostic marker cTNT [8]	viability of healthy (siScr) cells [9]	RNA levels of myeloid, inflammatory, heart failure and fibrotic markers [10]
COC(=O)[C@H](c1ccccc1Cl)N1CCc2sccc2C1 [Clopidogrel, clopidogrel]	without inflicting harm on the healthy (siScr) cells	decreased levels of Qtracker-stained area upon treatment of siTET2 cells back to the baseline healthy levels	increase the levels of cell death of CHIP myeloid cells	without inflicting harm on the healthy (siScr) cells	increase the levels of cell death of CHIP myeloid cells (Trypan Blue Assay) and apoptosis in particular	selectively inhibit the viability of CHIP myeloid cells (siTET2)	decreased areas of Cleaved Caspase staining back towards healthy levels	decreased back to healthy levels	without compromising the viability of healthy (siScr) cells	rescued upon treatment with the 3 aforementioned drugs back down towards healthy levels (≤1.0)
C[C@H]1O[C@@H](O[C@H]2[C@@H](O)C[C@H](O[C@H]3[C@@H](O)C[C@H](O[C@H]4CC[C@@]5(C)[C@H](CC[C@@H]6[C@@H]5CC[C@]5(C)[C@@H](C7=CC(=O)OC7)CC[C@]65O)C4)O[C@@H]3C)O[C@@H]2C)C[C@H](O)[C@@H]1O [Digitoxin]	–	–	–	–	–	only Ginsenoside Rb1 was found to do so significantly	–	–	–	–
CC(C)=CCC[C@](C)(O[C@@H]1O[C@H](CO[C@@H]2O[C@H](CO)[C@@H](O)[C@H](O)[C@H]2O)[C@@H](O)[C@H](O)[C@H]1O)[C@H]1CC[C@]2(C)[C@@H]1[C@H](O)C[C@@H]1[C@@]3(C)CC[C@H](O[C@@H]4O[C@H](CO)[C@@H](O)[C@H](O)[C@H]4O[C@@H]4O[C@H](CO)[C@@H](O)[C@H](O)[C@H]4O)C(C)(C)[C@@H]3CC[C@]12C [Ginsenoside Rb1]	–	–	–	–	–	found to do so significantly	–	–	also decreases the viability of healthy cells	–
CC(=O)O[C@H]1C[C@H](O[C@H]2[C@@H](O)C[C@H](O[C@H]3[C@@H](O)C[C@H](O[C@H]4CC[C@@]5(C)[C@H](CC[C@@H]6[C@@H]5C[C@@H](O)[C@]5(C)[C@@H](C7=CC(=O)OC7)CC[C@]65O)C4)O[C@@H]3C)O[C@@H]2C)O[C@H](C)[C@H]1O[C@@H]1O[C@H](CO)[C@@H](O)[C@H](O)[C@H]1O [Lanatoside C, lanatoside C]	without inflicting harm on the healthy (siScr) cells	decreased levels of Qtracker-stained area upon treatment of siTET2 cells back to the baseline healthy levels	increase the levels of cell death of CHIP myeloid cells	without inflicting harm on the healthy (siScr) cells	increase the levels of cell death of CHIP myeloid cells (Trypan Blue Assay) and apoptosis in particular	selectively inhibit the viability of CHIP myeloid cells (siTET2)	decreased areas of Cleaved Caspase staining back towards healthy levels	decreased back to healthy levels	without compromising the viability of healthy (siScr) cells	rescued upon treatment with the 3 aforementioned drugs back down towards healthy levels (≤1.0)
COc1cc(Nc2ncc(F)c(Nc3ccc4c(n3)NC(=O)C(C)(C)O4)n2)cc(OC)c1OC [R406]	without inflicting harm on the healthy (siScr) cells	decreased levels of Qtracker-stained area upon treatment of siTET2 cells back to the baseline healthy levels	increase the levels of cell death of CHIP myeloid cells	without inflicting harm on the healthy (siScr) cells	increase the levels of cell death of CHIP myeloid cells (Trypan Blue Assay) and apoptosis in particular	selectively inhibit the viability of CHIP myeloid cells (siTET2)	decreased areas of Cleaved Caspase staining back towards healthy levels	decreased back to healthy levels	without compromising the viability of healthy (siScr) cells	rescued upon treatment with the 3 aforementioned drugs back down towards healthy levels (≤1.0)
CCCSc1nc(N[C@@H]2C[C@H]2c2ccc(F)c(F)c2)c2nnn([C@@H]3C[C@H](OCCO)[C@@H](O)[C@H]3O)c2n1 [Ticagrelor]	–	–	–	–	–	–	–	–	also decrease the viability of healthy cells	–
CCCCC[C@H](O)CC[C@@H]1[C@H]2Cc3cccc(OCC(=O)O)c3C[C@H]2C[C@H]1O [Treprostinil Sodium]	–	–	–	–	–	–	–	–	also decrease the viability of healthy cells	–
CC(=O)Oc1cc(C(F)(F)F)ccc1C(=O)O [Triflusal]	–	–	–	–	–	–	–	–	also decrease the viability of healthy cells	–
Escin	–	–	–	–	–	only Ginsenoside Rb1 was found to do so significantly	–	–	–	–
